Data as given in US20220323442A1, “ENTERIC-COATED PREPARATION COMPRISING XANTHINE OXIDASE INHIBITOR” (Nippon Chemiphar Co., Ltd., priority 2019, published 2022).

Experiment: Volume average particle size (D50) by laser diffraction
Format: physicochemical
Conditions: amorphous Compound 14 (spray dried), dispersed in 0.2% Aerosol OT aqueous solution, ultrasonic 30 seconds
Excerpt: The volume average particle size (D50) can usually be measured by dispersing the measurement sample in a solvent such as water or ethanol and measuring the particle size distribution by a laser diffraction method. The measurement sample may be dispersed in a solvent by irradiation of ultrasonic waves or the like. The particle size distribution can be measured by a particle size distribution measuring device (for example, Shimadzu laser diffraction type particle size distribution measuring device SALD-2200). The volume average particle size (D50) can be determined from the obtained particle size distribution result. A commercially available software (for example, Shimadzu WingSALD-2200 version 1.02) can be used for data collection and analysis.
A volume average particle size (D50) of the obtained amorphous Compound 14 was measured with a Shimadzu laser diffraction type particle size distribution measuring device SALD-2200 using a dispersion obtained by adding about 2 mg of a sample to a 0.2% Aerosol OT aqueous solution and irradiating the solution with ultrasonic waves for 30 seconds for dispersion. Shimadzu WingSALD-2200 version 1.02 software was used for data collection and analysis. […] The volume average particle size (D50) of amorphous Compound 14 obtained from the particle size distribution was 2.949 μm.

N#Cc1cc(-c2nc3c(O)ncnc3s2)ccc1Oc1ccccc1 [Compound 14, 2-(3-Cyano-4-phenoxyphenyl)-7-hydroxythiazolo(5,4-d]pyrimidine]
volume average particle size (D50): 2.949 μm
